# Results published in patent publication US20120121540A1 (priority 2007, published 2012).
# Test: HCV replicon assay (luciferase reporter, ET cell line)
# Assay type: cell-based
# Conditions: Hepatitis C virus, HCV replicon luciferase activity in ET cells
# In short: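 EC50 and, via WST-1 cytotoxicity, TC50 were fitted with a Hill-coefficient equation to % inhibition across 10 two-fold dilutions. Compounds at 0.1 nM-[…] with 0.5% DMSO were applied 24 h post-seeding to replicon-bearing ET cells (luc-ubi-neo/NS3-5B, adaptive mutations). Firefly luciferase signal was measured after 48-72 h.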
row,Compound,inhibition at 10 µM [%]
1,"O=C(NCc1cccs1)c1nc2c(C(F)(F)F)cc(-c3cccc(F)c3)cn2c1Cl [Compound 196, 3-Chloro-6-(3-fluoro-phenyl)-8-trifluoromethyl-imidazo[1,2-a]pyridine-2-carboxylic acid (thiophen-2-ylmethyl)-amide]",94
2,"O=C(c1nc2c(C(F)(F)F)cc(-c3ccoc3)cn2c1Br)N1CCC(c2ccc(F)cc2)C1 (stereo not drawn) [Compound 253, (3-Bromo-6-furan-3-yl-8-trifluoromethyl-imidazo[1,2-a]pyridin-2-yl)-[3-(4-fluoro-phenyl)-pyrrolidin-1-yl]-methanone]",98
3,"O=C(NCc1cccs1)c1cn2cc(-c3ccccc3)cc(C(F)(F)F)c2n1 [Compound 137, 6-Phenyl-8-trifluoromethyl-imidazo[1,2-a]pyridine-2-carboxylic Acid (thiophen-2-ylmethyl)-amide]",63
4,"O=C(c1nc2c(C(F)(F)F)cc(-c3ccoc3)cn2c1Cl)N1CCN(c2ccccc2)CC1 [Compound 534, (3-Chloro-6-furan-3-yl-8-trifluoromethyl-imidazo[1,2-a]pyridine-2-yl)-(4-phenyl-piperazin-1-yl)-methanone]",77.6
5,"CN(C)Cc1cccc(-c2cc(C(F)(F)F)c3nc(C(=O)N4CCC(c5ccc(F)cc5)C4)c(Cl)n3c2)c1 (stereo not drawn) [Compound 354, [3-Chloro-6-(3-dimethylaminomethyl-phenyl)-8-trifluoromethyl-imidazo[1,2-a]pyridin-2-yl]-[3-(4-fluoro-phenyl)-pyrrolidin-1-yl]-methanone]",97.8
6,"O=C(NCc1cccs1)c1nc2c(C(F)(F)F)cc(-c3cccc(F)c3)cn2c1I [Compound 299, 6-(3-Fluoro-phenyl)-3-iodo-8-trifluoromethyl-imidazo[1,2-a]pyridine-2-carboxylic Acid(thiophen-2-ylmethyl)-amide]",97.6
7,"CS(=O)(=O)NC1CN(C(=O)c2nc3c(C(F)(F)F)cc(-c4cn[nH]c4)cn3c2Br)C1 [Compound 522, N-{1-[3-Bromo-6-(1H-pyrazol-4-yl)-8-trifluoromethyl-imidazo[1,2-a]pyridine-2-carbonyl]-azetidin-3-yl}-methanesulfonamide]",88.6
8,"CN(Cc1cccs1)C(=O)c1nc2c(C(F)(F)F)cc(-c3ccoc3)cn2c1Cl [Compound 332, 3-Chloro-6-furan-3-yl-8-trifluoromethyl-imidazo[1,2-a]pyridine-2-carboxylic Acid Methyl-thiophen-2-ylmethyl-amide]",37.7
9,"O=C(c1nc2c(C(F)(F)F)cc(-c3cn[nH]c3)cn2c1Br)N1CCC(c2ccccc2F)C1 (stereo not drawn) [Compound 449, (3-Bromo-6-(1H-pyrazol-4-yl)-8-trifluoromethyl-imidazo[1,2-a]pyridin-2-yl)-(3-(2-fluoro-phenyl)-pyrrolidin-1-yl)-methanone]",97.4
10,O=C(NCc1cccc(F)c1)c1nc2c(C(F)(F)F)cc(-c3ccoc3)cn2c1Cl [Compound 403],88.9
11,"N#Cc1ccccc1C1=CCN(C(=O)c2nc3c(C(F)(F)F)cc(-c4ccoc4)cn3c2Cl)CC1 [Compound 563, 2-[1-(3-Chloro-6-furan-3-yl-8-trifluoromethyl-imidazo[1,2-a]pyridine-2-carbonyl)-1,2,3,6-tetrahydro-pyridin-4-yl]-benzonitrile]",97.4
12,"Cc1cscc1-c1cc(C(F)(F)F)c2nc(C(=O)NCc3cccs3)c(Cl)n2c1 [Compound 209, 3-Chloro-6-(4-methyl-thiophen-3-yl)-8-trifluoromethyl-imidazo[1,2-a]pyridine-2-carboxylic acid (thiophen-2-ylmethyl)-amide]",83.4
13,O=C(c1nc2c(C(F)(F)F)cc(-c3cn[nH]c3)cn2c1I)N1CCC(c2cccc(F)c2)C1 (stereo not drawn) [Compound 659],93.8
14,"O=C(c1nc2c(C(F)(F)F)cc(-c3ccoc3)cn2c1Cl)N1CC=C(c2ccncc2F)CC1 [Compound 572, (3-Chloro-6-furan-3-yl-8-trifluoromethyl-imidazo[1,2-1]pyridine-2-yl)-(3′-fluoro-3,6-dihydro-2H-[4,4′]bipyridinyl-1-yl)-methanone]",98.2
15,"O=C(NCC1CCCO1)c1cc2cc(-c3ccccc3)cc(I)n2n1 (stereo not drawn) [Compound 131, 7-Iodo-5-phenyl-pyrazolo[1,5-a]pyridine-2-carboxylic Acid (tetrahydro-furan-2-ylmethyl)-amide]",49.2
16,"O=C(c1nc2c(C(F)(F)F)cc(-c3ccoc3)cn2c1Cl)N1CC=C(c2cccc(F)c2)CC1 [Compound 576, (3-Chloro-6-furan-3-yl-8-trifluoromethyl-imidazo[1,2-a]pyridin-2-yl)-[4-(3-fluoro-phenyl)-3,6-dihydro-2H-pyridin-1-yl)-methanone]",82.6
17,"CC(=O)N(c1ccccc1)C1CCN(C(=O)c2nc3c(C(F)(F)F)cc(-c4ccoc4)cn3c2Cl)C1 (stereo not drawn) [Compound 600, N-[1-(3-Chloro-6-furan-3-yl-8-trifluoromethyl-imidazo[1,2-a]pyridine-2-carbonyl)-pyrrolidin-3-yl]-N-phenyl-acetamide]",76
18,"CCS(=O)(=O)NC1CN(C(=O)c2nc3c(C(F)(F)F)cc(-c4ccoc4)cn3c2Cl)C1 [Compound 500, Ethanesulfonic Acid[1-(3-chloro-6-furan-3-yl-8-trifluoromethyl-imidazo[1,2-a]pyridine-2-carbonyl)-azetidin-3-yl]-amide]",98
19,"O=C(c1nc2c(C(F)(F)F)cc(-c3ccoc3)cn2c1Cl)N1CC=C(c2ncccc2F)CC1 [Compound 571, (3-Chloro-6-furan-3-yl-8-trifluoromethyl-imidazo[1,2-a]pyridin-2-yl)-(3-fluoro-3′,6′-dihydro-2′H-[2,4′]bipyridinyl-1′-yl)-methanone]",97.8
20,"O=C(c1nc2c(C(F)(F)F)cc(-c3ccoc3)cn2c1Cl)N1CCC(c2cccc(F)c2)CC1 [Compound 276, (3-Chloro-6-furan-3-yl-8-trifluoromethyl-imidazo[1,2-a]pyridine-2-yl)-[4-(3-fluoro-phenyl)-piperidin-1-yl]-methanone]",74
21,O=C(c1nc2c(C(F)(F)F)cc(-c3ccoc3)cn2c1Cl)N1CC=C(c2cncs2)CC1 [Compound 568],98.8
22,"O=C(c1nc2c(C(F)(F)F)cc(-c3cn[nH]c3)cn2c1Cl)N1CCC(c2cccc(F)c2)C1 (stereo not drawn) [Compound 258, [3-Chloro-6-(1H-pyrazol-4-yl)-8-trifluoromethyl-imidazo[1,2-a]pyridin-2-yl]-[3-(3-fluoro-phenyl)-pyrrolidin-1-yl]-methanone]",91
23,"O=C(c1nc2c(C(F)(F)F)cc(-c3ccoc3)cn2c1Cl)N1CCC(c2ccccc2)CC1 [Compound 535, (3-Chloro-6-furan-3-yl-8-trifluoromethyl-imidazo[1,2-a]pyridine-2-yl)-(4-phenyl-piperidin-1-yl)-methanone]",86.6

# Test: not given
# Conditions: patients treated at currently recommended doses; cited from earlier work
row,Compound,patients with significant hemolysis
1,"NC(=O)c1ncn([C@@H]2O[C@H](CO)[C@@H](O)[C@H]2O)n1 [Ribavirin, ribavirin]",10-20%
